Experimental data reported in patent publication US20240216458A1, “Composition for the prevention, improvement or treatment of allergic diseases comprising an extract of Cassia mimosoides L. as an active ingredient” (KOREA INSTITUTE OF SCIENCE AND TECHNOLOGY, priority 2022, published 2024).

Legend:
Format in all cases: cell-based, rat
Conditions in all cases: compound 20 μM
RBL-2H3 mast cells [1] = test: TNF-α production secreted by mast cells (ELISA)
Experimental: (§1) First, RBL-2H3 mast cells were seeded at 2×10^5 cells/well in a 24-well microtiter plate containing Dulbecco's Modified Eagle's Media (DMEM) medium containing 2.5% fetal bovine serum, and cultured until they grew to 80% confluence. Afterwards, ethanol extract of Cassia mimosoides L. prepared in <Example 1> was added to serum-free DMEM medium at a concentration of 20 μg/ml and 40 μg/ml, respectively, and mast cells were cultured for 24 hours. After treating mast cells with DNP-BSA for 30 minutes, the cell culture fluid was collected, centrifuged, and only the supernatant was harvested. The amount of TNF-α in the supernatant was confirmed using an ELISA kit (Invitrogen, USA).
Mast cells were cultured in the same manner as in Example 4, and then treated with 17 compounds isolated in Example 12 at a concentration of 20 μM, respectively.

RBL-2H3 mast cells [2] = test: Interleukin-4 production secreted by mast cells (ELISA)
Experimental: as §1, with “interleukin-4” for “TNF-α”
Mast cells were cultured in the same manner as in Example 5, and then treated with 17 compounds isolated in Example 12 at a concentration of 20 μM, respectively.

RBL-2H3 mast cells [3] = test: Histamine production secreted by mast cells (EIA kit)
Experimental: as §1, with “histamine” for “TNF-α”, “EIA” for “ELISA”, “(Bertin Pharma, France).” for “(Invitrogen, USA).”
Mast cells were cultured in the same manner as in Example 3, and then treated with 17 compounds isolated in Example 12 at a concentration of 20 μM, respectively.

RBL-2H3 mast cells [4] = test: Prostaglandin E2 production secreted by mast cells (ELISA)
Experimental: as §1, with “prostaglandin E2” for “TNF-α”, “(R&D systems,” for “(Invitrogen,”
Mast cells were cultured in the same manner as in Example 6, and then treated with 17 compounds isolated in Example 12 at a concentration of 20 μM, respectively.

RBL-2H3 mast cells [5] = test: Secretion of allergens in mast cell granules (beta-hexosaminidase activity, degranulation) after DNP-BSA stimulation
Experimental: First, rat basophilic leukocyte (RBL-2H3, American Type Culture Collection, USA) mast cells were cultured in minimal medium containing antibiotics and 10% bovine serum. After culturing, the cells were collected with trypsin, placed in a 24-well microtiter plate at 2×10^5 cells/well, and cultured until they grew to 80% confluence. The medium was replaced with PIPES buffer (25 mM PIPES, PH 7.2, 159 mM NaCl, 5 mM KCl, 0.4 mM MgCl2, 1 mM CaCl2), 5.6 mM glucose, and 0.1% BSA) for the cultured cells, and then ethanol extract of Cassia mimosoides L. prepared in <Example 1> was added to concentrations of 20 μg/ml and 40 μg/ml, respectively, and cultured for 1 hour. […]
The degree of secretion of allergy-inducing substances was determined by measuring the activity of beta-hexosaminidase, a marker of degranulation secreted in the medium, and the activity of beta-hexosaminidase was determined as the amount of p-nitrophenol liberated from p-nitrophenyl-acetyl-β-D-glucosaminide (Funaba M. et al., Cell Biol. Int., 27:879-85, 2003). […]
The degree of allergen secretion was determined by measuring the activity of β-hexosaminidase, a marker of degranulation, which was secreted in the medium, and the activity of β-hexosaminidase was determined as the amount of p-nitrophenyl liberated from p-nitrophenyl-acetyl-β-D-glucosaminide (Funaba M. et al, Cell Biol. Int., 27:879-85, 2003). […]

Oc1ccc2c(c1)OC(c1ccc(O)c(O)c1)CC2c1c(O)cc(O)c2c1OC(c1ccc(O)c(O)c1)[C@@H](O)C2 (stereo partly drawn) [KA-2, (2S)-3′,4′,7-trihydroxyflavan-(4 α - >8)-catechin]
excellent efficacy: production of TNF-α secreted by mast cells (RBL-2H3 mast cells [1]) | production of interleukin-4 secreted by mast cells (RBL-2H3 mast cells [2]) | production of histamine secreted by mast cells (RBL-2H3 mast cells [3]) | production of prostaglandin E2 secreted by mast cells (RBL-2H3 mast cells [4]) | mast cell degranulation (RBL-2H3 mast cells [5])

Oc1ccc2c(c1)OC(c1ccc(O)c(O)c1)C[C@H]2c1c(O)cc(O)c2c1OC(c1ccc(O)c(O)c1)[C@@H](O)C2 (stereo partly drawn) [KA-1, (2S)-3′,4′,7-trihydroxyflavan-(4 β - >8)-catechin]
excellent efficacy: production of TNF-α secreted by mast cells (RBL-2H3 mast cells [1]) | production of interleukin-4 secreted by mast cells (RBL-2H3 mast cells [2]) | production of histamine secreted by mast cells (RBL-2H3 mast cells [3]) | production of prostaglandin E2 secreted by mast cells (RBL-2H3 mast cells [4]) | mast cell degranulation (RBL-2H3 mast cells [5])
